This note sets out measurements from ChEMBL document CHEMBL5518189, “Design, synthesis and biological evaluation of 1,2,3-triazole benzothiazole derivatives as tubulin polymerization inhibitors with potent anti-esophageal cancer activities” (Eur J Med Chem, 2024).

pIC50: −log10 of the molar value.

One test has as its system MGC-803. Description: Antiproliferative activity against human MGC-803 cells assessed as inhibition of cell growth measured after 48 hrs by CCK8 method. It is filed as functional, cell-based. The note with it: MGC-803, 48 h. Background: Tetrazolium dyes change colour on reduction, which living cells bring about.
The test system of a further test is HCT-116. Description: Antiproliferative activity against human HCT-116 cells assessed as inhibition of cell growth measured after 48 hrs by CCK8 method. To be noted: HCT-116, 48 h. Format: functional, cell-based.
The next test relates to KYSE-30. As to the kind of experiment: Antiproliferative activity against human KYSE-30 cells assessed as inhibition of cell growth measured after 48 hrs by CCK8 method. It is filed as functional, cell-based. The note with it: KYSE-30, 48 h.
Test [1] deals with Tubulin. Description: Inhibition of tubulin polymerization (unknown origin). Format: protein-complex assay, Homo sapiens.
The subject of a further test is HeLa. As to the kind of experiment: Growth inhibition of human HeLa cells. Format: functional.
For test [2], the target named is Tubulin. As to the kind of experiment: Inhibition of tubulin polymerization (unknown origin) by spectrophotometer analysis. Format: protein-complex assay, Homo sapiens.
Another test has as its system PC-3. Description: Antiproliferative activity against human PC-3 cells assessed as inhibition of cell growth measured after72 hrs by MTT assay. It is filed as functional, cell-based.

As a reminder, the pIC50 is −log10 of the IC50, conventionally taken in molar units. On to `COc1cc(N(Cc2ccc(C)cc2)C(=O)Cn2cc(CSc3nc4ccccc4s3)nn2)cc(OC)c1OC`, for which the results for the pIC50 in the test on MGC-803, with HCT-116 and in the test with KYSE-30 were 5.63, 5.40 and 5.73, respectively.

For the compound `COc1ccc(CN(C(=O)Cn2cc(CSc3nc4ccccc4s3)nn2)c2cc(OC)c(OC)c(OC)c2)cc1OC`, the figures for the pIC50 in the test on MGC-803, in the test with HCT-116 and in the test on KYSE-30 were 5.81, 5.66 and 5.76, respectively.

Consider `COc1cc(N(Cc2nc3ccccc3[nH]2)C(=O)Cn2cc(CSc3nc4ccccc4s3)nn2)cc(OC)c1OC`, for which the pIC50 is 4.39 in the test on MGC-803, 4.16 in the test on HCT-116 and 4.25 with KYSE-30.

With `COc1cc(N(Cc2cccnc2)C(=O)Cn2cc(CSc3nc4ccccc4s3)nn2)cc(OC)c1OC`, the pIC50 with MGC-803, in the test on HCT-116 and in the test on KYSE-30 was < 4.10 throughout.

Take `COc1cc(N(Cc2ccc(F)cc2)C(=O)Cn2cc(CSc3nc4ccccc4s3)nn2)cc(OC)c1OC`: the pIC50 in the test with MGC-803, in the test with HCT-116 and in the test on KYSE-30 was < 4.10 each time.

For the compound `COc1ccc(CN(C(=O)Cn2cc(CSc3nc4ccccc4s3)nn2)c2cc(OC)c(OC)c(OC)c2)cc1F`, the results for the pIC50 in the test with MGC-803, with HCT-116 and with KYSE-30 were 6.54, 6.33 and 6.12, respectively.

Take `COc1ccc(CN(C(=O)Cn2cc(CSc3nc4ccc(Cl)cc4s3)nn2)c2cc(OC)c(OC)c(OC)c2)cc1O`: the pIC50 was 7.16 in the test on MGC-803, 7.21 in the test with HCT-116 and 7.14 with KYSE-30.

Consider `COc1ccc(CN(C(=O)Cn2cc(CSc3nc4ccccc4s3)nn2)c2cc(OC)c(OC)c(OC)c2)cc1`, for which the pIC50 in the test with MGC-803 was 5.99; in the test with HCT-116, 5.77; in the test on KYSE-30 it was 5.84.

As for `COc1ccc(CN(C(=O)Cn2cc(CSc3nc4ccc(Br)cc4s3)nn2)c2cc(OC)c(OC)c(OC)c2)cc1O`, the pIC50 was 7.27 in the test with MGC-803, 7.19 in the test with HCT-116 and 7.31 in the test with KYSE-30.

Regarding `COc1ccc(CN(C(=O)Cn2cc(CSc3nc4ccccc4s3)nn2)c2ccc(OC)c(OC)c2)cc1`, the figures for the pIC50 in the test with MGC-803, in the test with HCT-116 and with KYSE-30 were 4.41, 4.28 and < 4.10, respectively.

Consider `COc1cc(N(Cc2c(C)noc2C)C(=O)Cn2cc(CSc3nc4ccccc4s3)nn2)cc(OC)c1OC`, for which the negative-log IC50 (pIC50) in the test with MGC-803, with HCT-116 and in the test with KYSE-30 was < 4.10 throughout.

On to `COc1ccc(CN(C(=O)Cn2cc(CSc3nc4ccccc4s3)nn2)c2ccc(Br)cc2)cc1`, for which the pIC50 in the test with MGC-803 is 4.27; with HCT-116 it was 4.22; in the test with KYSE-30 it was 4.45.

With `COc1ccc(CN(C(=O)Cn2cc(CSc3nc4ccccc4s3)nn2)c2ccc(OC)cc2)cc1`, the pIC50 in the test with MGC-803 is 4.84; with HCT-116, 4.47; in the test with KYSE-30 it was 4.55.

In the case of `COc1ccc(CN(C(=O)Cn2cc(CSc3nc4ccccc4s3)nn2)c2ccccc2)cc1`, the pIC50 was 4.28 in the test on MGC-803, 4.20 in the test with HCT-116 and 4.21 in the test with KYSE-30.

With `COc1cc(N(Cc2ccc(Cl)cc2)C(=O)Cn2cc(CSc3nc4ccccc4s3)nn2)cc(OC)c1OC`, the pIC50 in the test on MGC-803, with HCT-116 and in the test with KYSE-30 was < 4.10 each time.

For the compound `COc1ccc(CN(C(=O)Cn2cc(CSc3nc4ccccc4s3)nn2)c2ccc(Cl)cc2)cc1`, the pIC50 in the test on MGC-803 is 4.21; with HCT-116, 4.23; with KYSE-30, < 4.10.

As to `COc1ccc(CN(C(=O)Cn2cc(CSc3nc4c(C)cccc4s3)nn2)c2cc(OC)c(OC)c(OC)c2)cc1O`, the figures for the pIC50 in the test with MGC-803, with HCT-116 and with KYSE-30 were 7.05, 7.11 and 7.17, respectively.

One may read the GI50 as the concentration that inhibits growth by half. Regarding `COc1ccc2nc(-c3ccc(-n4cnnc4-c4cc(OC)c(OC)c(OC)c4)c(C)c3)sc2c1`, the pIC50 on Tubulin [1] is 5.72. In addition, the GI50 in the test with HeLa turned out to be 0.04 µM.

With `COc1ccc(CN(C(=O)Cn2cc(CSc3nc4ccccc4s3)nn2)c2ccc(C)cc2)cc1`, the pIC50 in the test on MGC-803 was 4.33; in the test on HCT-116, < 4.10; in the test with KYSE-30, 4.20.

For `COc1ccc(CN(C(=O)Cn2cc(CSc3nc4ccccc4s3)nn2)c2cc(OC)c(OC)c(OC)c2)cc1Br`, the pIC50 was 6.09 in the test with MGC-803, 5.88 in the test with HCT-116 and 5.94 in the test with KYSE-30.

`COc1cc(C(=O)c2nc3cc(Br)ccc3s2)cc(OC)c1OC` had a pIC50 against Tubulin [2] of 4.88.

Consider `COc1ccc(CN(C(=O)Cn2cc(CSc3nc4ccccc4s3)nn2)c2ccc(F)cc2)cc1`, for which the pIC50 is 4.16 in the test with MGC-803, < 4.10 in the test with HCT-116 and 4.11 in the test on KYSE-30.

With `COc1cc(N(Cc2ccc(Br)cc2)C(=O)Cn2cc(CSc3nc4ccccc4s3)nn2)cc(OC)c1OC`, the figures for the pIC50 in the test with MGC-803, in the test with HCT-116 and with KYSE-30 were 4.13, 4.22 and < 4.10, respectively.

`COc1cc(N(Cc2c(C)noc2C)C(=O)CSc2nc3ccccc3s2)cc(OC)c1OC`: the pIC50 in the test with PC-3 was 5.69.

As for `COc1ccc2nc(SCc3cn(CC(=O)N(Cc4ccc(OC)c(O)c4)c4cc(OC)c(OC)c(OC)c4)nn3)sc2c1`, the pIC50 was 7.20 in the test with MGC-803, 6.90 in the test on HCT-116 and 7.24 in the test with KYSE-30.

`COc1cc2c(c(OC)c1OC)-c1ccc(OC)c(=O)cc1[C@@H](NC(C)=O)CC2` [COLCHICINE]: the pIC50 was 7.34 in the test with MGC-803 and 7.32 in the test with KYSE-30.

In turn, `COc1ccc2nc(-c3cccnc3-c3cc(OC)c(OC)c(OC)c3)sc2c1` gave a pIC50 against Tubulin [1] of 5.78.

Turning to `COc1cc(CN(C(=O)Cn2cc(CSc3nc4ccccc4s3)nn2)c2cc(OC)c(OC)c(OC)c2)cc(OC)c1OC`, the pIC50 in the test on MGC-803, in the test with HCT-116 and in the test on KYSE-30 was < 4.10 each time.

For the compound `COc1ccc(CN(C(=O)Cn2cc(CSc3nc4ccccc4s3)nn2)c2cc(OC)c(OC)c(OC)c2)cc1[N+](=O)[O-]`, the pIC50 in the test with MGC-803 is 5.09; in the test with HCT-116, 4.79; with KYSE-30 it was 4.92.

As to `COc1ccc(CN(C(=O)Cn2cc(CSc3nc4ccccc4s3)nn2)c2cc(OC)c(OC)c(OC)c2)cc1N`, the values for the pIC50 in the test with MGC-803, in the test with HCT-116 and with KYSE-30 were 7.06, 7.03 and 7.23, respectively.
